{"source": "PubChem BioAssay (NCI)", "experiment_in_all_cases": "NCI-60 cell line screen, 48 h", "key": {"[1]": {"tested_on": "UACC-257 melanoma"}, "[2]": {"tested_on": "OVCAR-4 ovarian"}, "[3]": {"tested_on": "HOP-92 NSCLC"}, "[4]": {"tested_on": "786-0 renal"}, "[5]": {"tested_on": "DU-145 prostate"}, "[6]": {"tested_on": "SK-MEL-28 melanoma"}, "[7]": {"tested_on": "A549 NSCLC"}, "[8]": {"tested_on": "CAKI-1 renal"}, "[9]": {"tested_on": "T-47D breast"}, "[10]": {"tested_on": "BT-549 breast"}, "[11]": {"tested_on": "SK-MEL-2 melanoma"}, "[12]": {"tested_on": "UO-31 renal"}, "[13]": {"tested_on": "SF-268 CNS"}, "[14]": {"tested_on": "OVCAR-8 ovarian"}, "[15]": {"tested_on": "TK-10 renal"}, "[16]": {"tested_on": "NCI-H23 lung"}, "[17]": {"tested_on": "PC-3 prostate"}, "[18]": {"tested_on": "RXF 393 renal"}, "[19]": {"tested_on": "MCF7 breast"}, "[20]": {"tested_on": "MDA-MB-435"}, "[21]": {"tested_on": "HS 578T breast"}, "[22]": {"tested_on": "HCT-15 colon"}, "[23]": {"tested_on": "HT29 colon"}, "[24]": {"tested_on": "MOLT-4 leukemia"}, "[25]": {"tested_on": "OVCAR-3 ovarian"}, "[26]": {"tested_on": "OVCAR-5 ovarian"}, "[27]": {"tested_on": "SF-539 CNS"}, "[28]": {"tested_on": "RPMI-8226 leukemia"}, "[29]": {"tested_on": "SW-620 colon"}, "[30]": {"tested_on": "HCC-2998 colon"}, "[31]": {"tested_on": "CCRF-CEM leukemia"}, "[32]": {"tested_on": "KM12 colon"}, "[33]": {"tested_on": "M14 melanoma"}, "[34]": {"tested_on": "NCI-H460 lung"}, "[35]": {"tested_on": "UACC-62 melanoma"}, "[36]": {"tested_on": "NCI/ADR-RES ovarian"}, "[37]": {"tested_on": "HL-60(TB) leukemia"}, "[38]": {"tested_on": "ACHN renal"}, "[39]": {"tested_on": "SNB-75 CNS"}, "[40]": {"tested_on": "NCI-H522 lung"}, "[41]": {"tested_on": "HCT-116 colon"}, "[42]": {"tested_on": "SN12C renal"}, "[43]": {"tested_on": "A498 renal"}, "[44]": {"tested_on": "EKVX NSCLC"}, "[45]": {"tested_on": "SNB-19 CNS"}, "[46]": {"tested_on": "NCI-H226 lung"}, "[47]": {"tested_on": "HOP-62 NSCLC"}, "[48]": {"tested_on": "LOX IMVI melanoma"}, "[49]": {"tested_on": "SK-MEL-5 melanoma"}, "[50]": {"tested_on": "IGROV1 ovarian"}, "[51]": {"tested_on": "U251 CNS"}, "[52]": {"tested_on": "SF-295 CNS"}, "[53]": {"tested_on": "MALME-3M melanoma"}, "[54]": {"tested_on": "MDA-MB-231 breast"}, "[55]": {"tested_on": "SK-OV-3 ovarian"}, "[56]": {"tested_on": "MDA-N"}, "[57]": {"tested_on": "COLO 205 colon"}}, "note": "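A five-concentration, 48-hour dose response in 96-well plates underlies each endpoint, interpolated linearly between surrounding concentrations. The concentration for full growth arrest is given as TGI.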"}
{"smiles": "Fc1ccc(C(OCCN2CCC3CCC(C2)N3Cc2cc3ccccc3[nH]2)c2ccc(F)cc2)cc1", "note": "(configuration not stated)", "values": [{"measurement": "TGI", "setting": "[1]", "result": 3.53, "unit": "µM"}, {"measurement": "TGI", "setting": "[2]", "result": 5.68, "unit": "µM"}, {"measurement": "TGI", "setting": "[3]", "result": 3.62, "unit": "µM"}, {"measurement": "TGI", "setting": "[4]", "result": 3.08, "unit": "µM"}, {"measurement": "TGI", "setting": "[5]", "result": 3.59, "unit": "µM"}, {"measurement": "TGI", "setting": "[6]", "result": 3.04, "unit": "µM"}, {"measurement": "TGI", "setting": "[7]", "result": 4.26, "unit": "µM"}, {"measurement": "TGI", "setting": "[8]", "result": 5.69, "unit": "µM"}, {"measurement": "TGI", "setting": "[9]", "result": 3.18, "unit": "µM"}, {"measurement": "TGI", "setting": "[10]", "result": 5.08, "unit": "µM"}, {"measurement": "TGI", "setting": "[11]", "result": 3.16, "unit": "µM"}, {"measurement": "TGI", "setting": "[12]", "result": 3.42, "unit": "µM"}, {"measurement": "TGI", "setting": "[13]", "result": 4.12, "unit": "µM"}, {"measurement": "TGI", "setting": "[14]", "result": 3.1, "unit": "µM"}, {"measurement": "TGI", "setting": "[15]", "result": 5.38, "unit": "µM"}, {"measurement": "TGI", "setting": "[16]", "result": 3.05, "unit": "µM"}, {"measurement": "TGI", "setting": "[17]", "result": 3.25, "unit": "µM"}, {"measurement": "TGI", "setting": "[18]", "result": 3.12, "unit": "µM"}, {"measurement": "TGI", "setting": "[19]", "result": 3.57, "unit": "µM"}, {"measurement": "TGI", "setting": "[20]", "result": 3.55, "unit": "µM"}, {"measurement": "TGI", "setting": "[21]", "result": 4, "unit": "µM"}, {"measurement": "TGI", "setting": "[22]", "result": 2.38, "unit": "µM"}, {"measurement": "TGI", "setting": "[23]", "result": 2.49, "unit": "µM"}, {"measurement": "TGI", "setting": "[24]", "result": 4.03, "unit": "µM"}, {"measurement": "TGI", "setting": "[25]", "result": 3.39, "unit": "µM"}, {"measurement": "TGI", "setting": "[26]", "result": 4.18, "unit": "µM"}, {"measurement": "TGI", "setting": "[27]", "result": 3.01, "unit": "µM"}, {"measurement": "TGI", "setting": "[28]", "result": 3.42, "unit": "µM"}, {"measurement": "TGI", "setting": "[29]", "result": 3.78, "unit": "µM"}, {"measurement": "TGI", "setting": "[30]", "result": 3.06, "unit": "µM"}, {"measurement": "TGI", "setting": "[31]", "result": 4.69, "unit": "µM"}, {"measurement": "TGI", "setting": "[32]", "result": 3.72, "unit": "µM"}, {"measurement": "TGI", "setting": "[33]", "result": 2.94, "unit": "µM"}, {"measurement": "TGI", "setting": "[34]", "result": 3.67, "unit": "µM"}, {"measurement": "TGI", "setting": "[35]", "result": 4.46, "unit": "µM"}, {"measurement": "TGI", "setting": "[36]", "result": 3.1, "unit": "µM"}, {"measurement": "TGI", "setting": "[37]", "result": 3.69, "unit": "µM"}, {"measurement": "TGI", "setting": "[38]", "result": 4.07, "unit": "µM"}, {"measurement": "TGI", "setting": "[39]", "result": 3.97, "unit": "µM"}, {"measurement": "TGI", "setting": "[40]", "result": 2.84, "unit": "µM"}, {"measurement": "TGI", "setting": "[41]", "result": 2.6, "unit": "µM"}, {"measurement": "TGI", "setting": "[42]", "result": 3.05, "unit": "µM"}, {"measurement": "TGI", "setting": "[43]", "result": 2.99, "unit": "µM"}, {"measurement": "TGI", "setting": "[44]", "result": 3.73, "unit": "µM"}, {"measurement": "TGI", "setting": "[45]", "result": 7.55, "unit": "µM"}, {"measurement": "TGI", "setting": "[46]", "result": 3.41, "unit": "µM"}, {"measurement": "TGI", "setting": "[47]", "result": 4.54, "unit": "µM"}, {"measurement": "TGI", "setting": "[48]", "result": 3.18, "unit": "µM"}, {"measurement": "TGI", "setting": "[49]", "result": 3.11, "unit": "µM"}, {"measurement": "TGI", "setting": "[50]", "result": 2.79, "unit": "µM"}, {"measurement": "TGI", "setting": "[51]", "result": 3.42, "unit": "µM"}, {"measurement": "TGI", "setting": "[52]", "result": 3.78, "unit": "µM"}, {"measurement": "TGI", "setting": "[53]", "result": 2.96, "unit": "µM"}, {"measurement": "TGI", "setting": "[54]", "result": 3.22, "unit": "µM"}, {"measurement": "TGI", "setting": "[55]", "result": 5.69, "unit": "µM"}, {"measurement": "TGI", "setting": "[56]", "result": 3.1, "unit": "µM"}, {"measurement": "TGI", "setting": "[57]", "result": 2.14, "unit": "µM"}]}
